Tests used:
[1] = target: KRAS-G13D (Homo sapiens, UniProt P01116, G13D); test: SOS-catalyzed nucleotide exchange assay (Procedure A, TR-FRET), KRAS-G13D; type: biochemical; details: nucleotide exchange, Procedure A; read-out: KRAS G13D GNE IC50
[2] = system: MKN-1 cells; test: Cellular phospho-ERK assay, MKN-1 cells (amplified wild-type KRAS); type: cell-based; details: Homo sapiens, amplified wild-type KRAS, 2 hours, read-out: MKN1 pERK IC50
How it was run: (§1)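 Inhibition of ERK phosphorylation was determined after treating attached cells with compound for 2 h; top concentration 30 μM, serial 1:3 dilution. Each well's p-ERK:total ERK ratio, read by SureFire Ultra, was fitted with a four-parameter model for IC50.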

[3] = system: SW620 cells; test: Cellular phospho-ERK assay, SW620 cells (homozygous KRAS-G12V); type: cell-based; details: Homo sapiens, SW-620, KRAS-G12V, 2 hours, read-out: SW620 pERK IC50
How it was run: as §1

Sequence of KRAS-G13D (P01116 with tags, fused parts or gaps isoform P01116-2 G13D): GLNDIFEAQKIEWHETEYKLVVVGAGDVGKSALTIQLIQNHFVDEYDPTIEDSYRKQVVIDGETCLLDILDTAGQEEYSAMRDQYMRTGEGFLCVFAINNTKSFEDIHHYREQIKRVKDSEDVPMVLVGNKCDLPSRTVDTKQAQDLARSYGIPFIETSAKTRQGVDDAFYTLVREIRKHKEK

In the case of `C#Cc1c(F)ccc2cc(O)cc(-c3nccc4c5c(N6CCOC[C@@](C)(O)C6)nc(OC[C@@]67CCCN6C[C@H](F)C7)nc5n(C)c34)c12` [Ex-18, (S)-4-(8-(8-ethynyl-7-fluoro-3-hydroxynaphthalen-1-yl)-2-(((2R,7aS)-2-fluorotetrahydro-1H-pyrrolizin-7a(5H)-yl)methoxy)-9-methyl-9H-pyrido[4′,3′:4,5]pyrrolo[2,3-d]pyrimidin-4-yl)-6-methyl-1,4-oxazepan-6-ol], the IC50 [1] is reported as 2.66 nM, the IC50 [2] is reported as 7.67 nM and the IC50 [3] is reported as 13.1 nM.
